Data from the supplement of paper PMC10307832.

Assays:
Assay in all cases: relative viability (nuclei count vs DMSO), 5 days (fraction); higher = more cells survive
[1] = compound: Cn1c(Nc2ccc(C(F)(F)F)cc2)nc2cc(Oc3ccnc(-c4ncc(C(F)(F)F)[nH]4)c3)ccc21 [RAF265] + O=C(c1cc(Cc2n[nH]c(=O)c3ccccc23)ccc1F)N1CCN(C(=O)C2CC2)CC1 [Olaparib] (partner 8 µM)
In short: (§1)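 Relative viability is defined as nuclei in treated wells over nuclei in vehicle wells. Duplicate plates were run and medians reported. Lung cancer cell lines in 1536-well plates were dosed by pin tool one day after seeding, with one drug or with a fixed anchor-drug dose plus five library-drug doses (not always all listed) in √10 steps, and nuclei were counted after 5 days.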

[2] = compound: C1=CC=C2C(=C1)C=CC(=C2SSC3=C(C=CC4=CC=CC=C43)O)O [IPA-3] + O=C(CCCCCCC(=O)Nc1ccccc1)NO [Vorinostat] (partner 1 µM)
In short: as §1

[3] = compound: C1=CC=C2C(=C1)C=CC(=C2SSC3=C(C=CC4=CC=CC=C43)O)O [IPA-3] + C[C@@H](Oc1cc(-c2cnn(C3CCNCC3)c2)cnc1N)c1c(Cl)ccc(F)c1Cl [Crizotinib] (partner 1 µM)
In short: as §1

[4] = compound: Cn1c(Nc2ccc(C(F)(F)F)cc2)nc2cc(Oc3ccnc(-c4ncc(C(F)(F)F)[nH]4)c3)ccc21 [RAF265] + CC1(C)CCC(c2ccc(Cl)cc2)=C(CN2CCN(c3ccc(C(=O)NS(=O)(=O)c4ccc(N[C@H](CCN5CCOCC5)CSc5ccccc5)c(S(=O)(=O)C(F)(F)F)c4)cc3)CC2)C1 [Navitoclax] (partner 0.5 µM)
In short: as §1

Cell Line | relative viability ([1]; first compound 0.01 µM) | relative viability ([1]; first compound 0.03162 µM) | relative viability ([1]; first compound 0.1 µM) | relative viability ([1]; first compound 0.3162 µM) | relative viability ([1]; first compound 1 µM) | relative viability ([2]; first compound 0.2 µM) | relative viability ([2]; first compound 0.6325 µM) | relative viability ([2]; first compound 2 µM) | relative viability ([2]; first compound 6.325 µM) | relative viability ([2]; first compound 20 µM) | relative viability ([3]; first compound 0.2 µM) | relative viability ([3]; first compound 0.6325 µM) | relative viability ([3]; first compound 2 µM) | relative viability ([3]; first compound 6.325 µM) | relative viability ([3]; first compound 20 µM) | relative viability ([4]; first compound 0.01 µM) | relative viability ([4]; first compound 0.03162 µM) | relative viability ([4]; first compound 0.1 µM) | relative viability ([4]; first compound 0.3162 µM) | relative viability ([4]; first compound 1 µM)
NCI-H2342 | 0.377 | 0.37 | 0.468 | 0.395 | 0.348 | 0.837 | 1.03 | 0.851 | 0.91 | 0.89 |  |  |  |  |  |  |  |  |  | 
NCI-H1299 | 0.984 | 0.906 | 0.949 | 0.625 | 0.664 |  |  |  |  |  | 0.974 | 0.935 | 0.96 | 0.928 | 0.961 | 1.03 | 0.988 | 1.06 | 0.989 | 0.738
NCI-H650 | 0.384 | 0.383 | 0.376 | 0.324 | 0.174 | 0.465 | 0.518 | 0.361 | 0.486 | 0.507 | 0.824 | 0.548 | 0.627 | 0.802 | 0.909 |  |  |  |  | 
NCI-H358 | 0.749 | 0.489 | 0.403 | 0.286 | 0.16 | 0.785 | 0.618 | 0.783 | 0.619 | 0.803 | 0.454 | 0.663 | 0.611 | 0.595 | 0.574 |  |  |  |  | 
SW 900 | 0.89 | 0.725 | 0.79 | 0.716 | 0.27 | 0.609 | 0.531 | 0.641 | 0.654 | 0.481 |  |  |  |  |  |  |  |  |  | 
EBC-1 | 0.721 | 0.64 | 0.639 | 0.586 | 0.432 |  |  |  |  |  | 0.188 | 0.186 | 0.168 | 0.195 | 0.193 | 0.398 | 0.366 | 0.332 | 0.283 | 0.312
NCI-H1395 | 0.478 | 0.431 | 0.434 | 0.49 | 0.46 | 0.679 | 0.754 | 0.588 | 0.635 | 0.747 |  |  |  |  |  | 1.46 | 1.16 | 1.15 | 1.28 | 0.867
ABC-1 | 0.919 | 0.649 | 0.952 | 1.07 | 0.791 | 1.2 | 1.31 | 1.11 | 1.12 | 1.13 | 1.12 | 1.17 |  | 0.981 | 1.06 |  |  |  |  | 
NCI-H1703 | 0.358 | 0.416 | 0.342 | 0.33 | 0.273 |  |  |  |  |  | 0.819 | 0.593 | 0.757 | 0.669 | 0.469 | 1.16 | 0.95 | 0.848 | 0.576 | 0.283
NCI-H1793 | 0.898 | 0.755 | 0.724 | 0.382 | 0.268 | 1.12 | 0.714 | 0.64 | 0.712 | 0.687 |  |  |  |  |  | 0.351 | 0.379 | 0.316 | 0.336 | 0.21
